Measured values reported in patent publication US20070123555A1, “PREVENTION AND TREATMENT OF HEARING DISORDERS” (Cypress Bioscience, Inc., priority 2005, published 2007).
Entries after “also recorded” stand apart in the source; their conditions may differ. Where two headings read alike, the source gives them in different places.

Assays:
CYP2D6 [1] = biological target: CYP2D6 (Homo sapiens, UniProt P10635); conditions: cited from earlier work
[2] = test system: outer hair cells of cochlear explants; assay: Cochlear explant cultures challenged with cisplatin, outer hair cell damage; format: cell-based, Sprague-Dawley rats
Source text: Explants of sensory epithelium from the basal turn of postnatal day 5 (p5) Sprague-Dawley rats were isolated using the methods of Van De Water and Sobkowicz (Van d Water T., Ruben R. J. (1974) “Growth of the inner ear in organ culture,” Ann. Otol. Rhinol. Laryngol., 83:1-16; Sobkowicz H. M., Loftus J. M., Slapnick S. M. (1993) “Tissue culture of the organ of Corti.,” Acta. Suppl. 502:3-36). Explants were maintained in Dulbecco's Modified Eagle's medium with 10% fetal bovine serum and 30 U/ml penicillin. HEPES buffer was added to a concentration of 25 mM and the glucose concentration increased to 6 mg/ml to enhance neuronal survival. Each 15 mm dish containing 250 μl of medium was maintained in an incubator at 37° C. with 5% CO2 and 95% humidity.
Toxicity-inducers (gentamicin or cisplatin, 1-100 μM) were exposed to the medium 12-24 h following plating for 48 h. Concentrations of gentamicin or cisplatin were employed that produced approximately 50% loss of outer hair cells, which permitted for assessments of either increases or decreases in outer hair cell damage.
Test compounds were applied to the cultures for 12 h, and then challenged with medium containing gentamicin or cisplatin plus the test compound for an additional 48 h, followed by fixation and evaluation.
At the end of culture, free floating explants were fixed with 4% paraformaldehyde and 1% glutaraldehyde in phosphate-buffered saline. The explants were then permeabilized with 1 % Tween-20 in phosphate-buffered saline. The explants were then stained with conjugated phalloidin-rhodamine probe in phosphate-buffered saline, washed twice, and mounted between two cover slips in a 1:3 mixture of phosphate-buffered saline/glycerol. Explants were imaged by light and fluorescence microscopy and by laser confocal microscopy to assess the degree of damage to the outer hair cells.
The results of one such test, employing cisplatin as an ototoxic agent and nicergoline as a test compound, are shown in FIG. 1. The control cultures contained no cisplatin and no nicergoline. […]

CYP2D6 [3] = conditions: in vivo; cited from earlier work
[4] = test system: permanent threshold shift; conditions: 6.7 mmol daily, versus placebo (sodium aspartate); rifle noise six days per week for eight weeks; cited from earlier work
cochlea = conditions: local administration; cited from earlier work
[5] = test system: noise-induced temporary threshold shift; conditions: daily ingestion of 122 mg for 10 days; cited from earlier work
cochlear sensory cells = conditions: perfusion into the cochlea via osmotic minipump; cited from earlier work

Chain of CYP2D6 (Homo sapiens, UniProt P10635) (P10635 whole entry): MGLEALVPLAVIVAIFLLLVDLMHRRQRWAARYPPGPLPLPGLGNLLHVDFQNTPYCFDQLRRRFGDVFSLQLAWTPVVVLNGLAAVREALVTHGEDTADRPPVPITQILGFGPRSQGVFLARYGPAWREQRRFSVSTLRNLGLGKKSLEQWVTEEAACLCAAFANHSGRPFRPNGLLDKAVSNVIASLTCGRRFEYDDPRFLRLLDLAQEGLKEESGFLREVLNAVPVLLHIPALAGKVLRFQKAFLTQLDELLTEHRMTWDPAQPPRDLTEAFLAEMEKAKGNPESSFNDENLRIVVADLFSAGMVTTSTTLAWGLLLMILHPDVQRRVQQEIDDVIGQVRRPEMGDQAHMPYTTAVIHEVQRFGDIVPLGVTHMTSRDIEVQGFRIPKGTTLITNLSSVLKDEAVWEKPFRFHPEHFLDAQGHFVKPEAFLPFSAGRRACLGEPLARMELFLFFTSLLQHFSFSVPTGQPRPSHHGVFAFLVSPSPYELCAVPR

Compound: CO[C@]12C[C@@H](COC(=O)c3cncc(Br)c3)CN(C)[C@@H]1Cc1cn(C)c3cccc2c13 [nicergoline]
- level in blood plasma after nicergoline dosing (CYP2D6 [1]; individuals having normal CYP2D6 function): almost no detectable nicergoline in blood plasma
- concentrations at which nicergoline itself is non-toxic to cochlear cultures ([2]; 0 μg/ml cisplatin, 10 μM nicergoline, 5 cultures): up to 10 μM
- protection against toxic effects of cisplatin ([2]; 2 μg/ml cisplatin, nicergoline 10 nM, 1 μM or 10 μM, FIG. 1): protects cochlear ear explants from chemically-induced damage by cisplatin; also recorded: exerting protection against the toxic effects of cisplatin at all tested concentrations
- concentration providing maximum protection from cisplatin-induced cell death ([2]; cisplatin 2 μg/ml (sentence prints 2 μM), test compound 12 h, then with cisplatin 48 h, 5 cultures each): about 1 μM

Compound: CO[C@]12C[C@@H](CO)CN(C)[C@@H]1Cc1cn(C)c3cccc2c13 [MMDL, 1-methyl-10-α-methoxy-9,10-dihydrolysergol]
- level in plasma after nicergoline dosing (CYP2D6 [3]): relatively high concentrations of MMDL
- level in blood plasma after nicergoline dosing (CYP2D6 [1]; in vivo): very little MMDL

Compound: N[C@@H](CC(=O)[O-])C(=O)[O-].[Mg+2] [magnesium aspartate]
- effect on permanent threshold shift [4]: significant effect on permanent threshold shift

Compound: CCN(CC)CCn1c(=O)c(Cc2ccc(OC)cc2)nc2ccccc21 [caroverine, 1-[2-(diethylamino)ethyl]-3-[(4-methoxyphenyl)methyl]-2-(1H)-quinoxalinone]
- protection of cochlea from noise trauma (cochlea): protection of cochlea from noise trauma

Compound: [Mg] [magnesium]
- effect on noise-induced temporary threshold shift [5]: protect against noise-induced temporary threshold shift

Compound: Nc1nc2ccc(OC(F)(F)F)cc2s1 [riluzole, 2-amino-6-trofluoromethoxybenzothiazole]
- effect on cochlear damage after acoustic trauma (cochlear sensory cells): prevents mitochondrial damage and subsequent translocation of cytochrome c, DNA fragmentation and hair cell degeneration

Compound: CO[C@]12C[C@@H](CO)CN(C)[C@@H]1Cc1c[nH]c3cccc2c13 [MDL, 10-α-methoxy-9,9-dihydrolysergol]
- level in plasma after nicergoline dosing (CYP2D6 [3]): low concentration of MDL
